Test results reported in US5962314A, “Calcium receptor-active molecules” (priority 1997, dated 1999).
Entries after “also recorded” stand apart in the source; their conditions may differ. One block for each compound: values may come before it. No end group written: not given here.

Columns and labels:
[1] = target: T1, parathyroid cell calcium receptor (Bos taurus, UniProt P35384); assay: cell-based; assay type: cell-based
T1 sequence (P35384 20-1085): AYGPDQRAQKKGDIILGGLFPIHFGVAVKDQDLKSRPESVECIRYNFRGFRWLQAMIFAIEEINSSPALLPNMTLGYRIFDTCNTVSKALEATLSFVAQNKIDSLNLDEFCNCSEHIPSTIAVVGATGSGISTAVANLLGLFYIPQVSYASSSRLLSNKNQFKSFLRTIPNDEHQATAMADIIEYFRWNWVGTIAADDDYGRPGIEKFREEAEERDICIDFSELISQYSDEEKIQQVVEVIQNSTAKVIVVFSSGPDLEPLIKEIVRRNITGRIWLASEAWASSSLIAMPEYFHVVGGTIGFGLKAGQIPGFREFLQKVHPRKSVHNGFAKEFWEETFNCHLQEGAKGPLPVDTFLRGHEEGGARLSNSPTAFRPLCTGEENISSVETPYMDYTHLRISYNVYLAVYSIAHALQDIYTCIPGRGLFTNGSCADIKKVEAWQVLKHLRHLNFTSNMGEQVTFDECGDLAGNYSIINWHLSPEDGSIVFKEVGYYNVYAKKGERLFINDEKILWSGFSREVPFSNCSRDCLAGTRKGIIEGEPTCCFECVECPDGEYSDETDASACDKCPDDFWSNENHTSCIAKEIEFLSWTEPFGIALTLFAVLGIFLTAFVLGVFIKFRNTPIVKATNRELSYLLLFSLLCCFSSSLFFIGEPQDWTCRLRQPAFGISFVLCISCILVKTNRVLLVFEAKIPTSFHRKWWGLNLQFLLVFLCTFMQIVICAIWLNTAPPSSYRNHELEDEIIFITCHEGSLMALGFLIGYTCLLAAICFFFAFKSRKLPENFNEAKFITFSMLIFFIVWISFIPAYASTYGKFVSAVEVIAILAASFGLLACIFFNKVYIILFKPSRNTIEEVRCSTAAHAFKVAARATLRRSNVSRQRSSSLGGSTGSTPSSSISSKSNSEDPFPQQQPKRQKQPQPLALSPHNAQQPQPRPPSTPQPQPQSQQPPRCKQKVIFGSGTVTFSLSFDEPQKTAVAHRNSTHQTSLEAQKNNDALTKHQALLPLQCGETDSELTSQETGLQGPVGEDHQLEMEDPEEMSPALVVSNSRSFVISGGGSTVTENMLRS

calcium receptor = target: T2, calcium receptor (Homo sapiens, UniProt P41180); assay: Xenopus oocytes injected with human parathyroid cell mRNA; assay type: cell-based; conditions: hexacyclen 135 μM; neomycin 100 μM; NPS 382 5 mM
T2 sequence (P41180 20-1078): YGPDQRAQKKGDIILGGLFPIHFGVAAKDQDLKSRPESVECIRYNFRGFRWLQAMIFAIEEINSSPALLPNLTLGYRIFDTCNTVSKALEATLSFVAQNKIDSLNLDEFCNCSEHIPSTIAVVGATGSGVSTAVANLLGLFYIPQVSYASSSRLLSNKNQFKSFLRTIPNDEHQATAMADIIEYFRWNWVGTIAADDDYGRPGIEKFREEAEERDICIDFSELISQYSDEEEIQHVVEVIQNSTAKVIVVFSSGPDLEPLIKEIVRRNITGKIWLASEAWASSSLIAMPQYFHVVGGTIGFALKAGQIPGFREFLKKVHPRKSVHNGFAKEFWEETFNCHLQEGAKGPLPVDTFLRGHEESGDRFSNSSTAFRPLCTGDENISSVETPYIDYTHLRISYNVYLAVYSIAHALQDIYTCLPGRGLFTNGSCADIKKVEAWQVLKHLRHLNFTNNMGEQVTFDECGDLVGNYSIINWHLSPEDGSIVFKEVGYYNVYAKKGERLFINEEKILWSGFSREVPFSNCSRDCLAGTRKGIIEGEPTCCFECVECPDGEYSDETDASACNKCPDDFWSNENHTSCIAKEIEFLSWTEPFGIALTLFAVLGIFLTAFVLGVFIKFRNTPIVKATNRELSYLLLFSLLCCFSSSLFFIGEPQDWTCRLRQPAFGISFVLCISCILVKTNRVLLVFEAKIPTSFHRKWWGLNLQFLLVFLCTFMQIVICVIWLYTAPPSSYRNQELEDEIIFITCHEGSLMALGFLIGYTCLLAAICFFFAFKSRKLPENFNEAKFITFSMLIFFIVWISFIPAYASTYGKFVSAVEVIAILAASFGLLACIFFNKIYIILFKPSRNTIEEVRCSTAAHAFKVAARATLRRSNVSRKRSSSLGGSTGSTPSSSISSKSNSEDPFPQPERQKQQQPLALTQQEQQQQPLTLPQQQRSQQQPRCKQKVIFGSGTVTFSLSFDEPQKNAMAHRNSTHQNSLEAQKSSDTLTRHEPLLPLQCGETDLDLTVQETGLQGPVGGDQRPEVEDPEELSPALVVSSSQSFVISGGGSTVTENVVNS
Procedure: Oocytes were injected with poly(A)^+ -enriched mRNA from human parathyroid tissue (hyperplastic glands from a case of secondary HPT).
(§1) Following incubation, an oocyte was placed into a 100-μl plastic chamber and superfused with MBS at a flow rate of 0.5 ml/min using a peristaltic pump. Test molecules or inorganic polycations were added by rapidly moving the tubing into different buffers. Recording and current-passing electrodes were constructed from thin-wall capillary tubing pulled to a resistance of 1-3 Mohms and filled with 3 M KCl. […] Currents were recorded directly onto a strip chart recorder.
Using this screen allows one to test for an action directly on the calcium receptor. Oocytes expressing the calcium receptor also responded to several molecules active on intact parathyroid cells when screened as follows. […] This offers rather compelling evidence showing that these molecules act on the calcium receptor or on some other protein intimately associated with its function.

[2] = target: T1, parathyroid cell calcium receptor; assay: Cl- current in Xenopus oocytes injected with bovine parathyroid cell mRNA; assay type: cell-based; set-up: Whole pieces of gland were used to prepare mRNA that directs the expression of the calcium receptor in Xenopus oocytes; expressed in transfected cells; host or cells: Xenopus laevis oocytes injected with parathyroid poly(A)+ mRNA; conditions: oocytes expressing parathyroid calcium receptor, fendiline 100 μM
Procedure: as §1

[3] = test system: osteoclast calcium receptor; assay: [Ca2+]i in indo-1-loaded rat osteoclasts; assay type: cell-based
bovine parathyroid cells = assay: PTH secretion from bovine parathyroid cells; assay type: cell-based
cyclic AMP = assay type: cell-based, bovine
inositol phosphates = assay: inositol phosphate formation in parathyroid cells; assay type: cell-based, bovine; conditions: 30 seconds
Procedure: After 30 seconds, the reaction was terminated by the addition of CHCl3 :MeOH:HCl and IP1 (circles) and IP3 (triangles) separated by anion exchange chromatography. Each point is the mean of 2 experiments, each performed in triplicate.
This section describes procedures measuring inositol phosphate formation. Membrane phospholipids were labeled by incubating parathyroid cells with 4 μCi/ml ^3 H-myo-inositol for 20-24 hours. Cells were then washed and resuspended in PCB containing 0.5 mM CaCl2 and 0.1% BSA. Incubations were performed in microfuge tubes in the absence or presence of various concentrations of organic polycation for different times. Reactions were terminated by the addition of 1 ml chloroform-methanol-12 N HCl (200:100:1; v/v/v). Aqueous phytic acid hydrolysate (200 μl; 25 μg phosphate/tube). The tubes were centrifuged and 600 μl of the aqueous phase was diluted into 10 ml water.
Inositol phosphates were separated by ion-exchange chromatography using AG1-X8 in either the chloride- or formate-form. When only IP3 levels were to be determined, the chloride-form was used, whereas the formate form was used to resolve the major inositol phosphates (IP3, IP2, and IP1). […] The last eluate was diluted and counted. […] The eluted samples from the formate columns were rotary evaporated, the residues brought up in cocktail, and counted.

PTH = PTH levels in rats; assay type: in vivo, rat; conditions: NPS 467, preliminary studies
From the text: The fall in blood Ca^2+ at this time was paralleled by a proportional fall in the levels of blood total calcium.

[4] = test system: serum albumin or phosphate; assay: serum albumin and phosphate in rats; assay type: in vivo, rat; conditions: i.p.
Procedure: (§2) Compounds shown to activate the bovine parathyroid cell calcium receptor in vitro were tested for hypocalcemic activity in vivo. Male Sprague-Dawley rats (200 g) were maintained on a low calcium diet for one week prior to receiving test substance or vehicle as control. Blood was collected from the tail vein three hours after the intra-peritoneal administration of NPS 467. […] Serum total calcium, albumin and phosphate were measured by techniques well known in the art.

serum ionized calcium = assay: serum ionized Ca2+ in rats; assay type: in vivo, rat; conditions: NPS 467 i.p., low calcium diet
Procedure: as §2
Rats (male, Sprague-Dawley, 250-300 g) were fed standard rat chow and fasted overnight prior to the experiment. NPS R-467 was suspended in corn oil and administered as a single oral dose through a gavage needle. Three hours later a sample of blood was taken from the tail vein and assessed for ionized Ca^2+ levels.

[5] = test system: parathyroid calcium receptors; assay: response of calcium receptor-transfected HEK293, CHO and JEG-3 cells; assay type: cell-based
Procedure: Functional calcium receptor expression was assessed by loading cells with fura-2 and measuring changes in intracellular calcium levels after addition of calcium receptor agonists. Control constructs were prepared by cloning the substance K receptor and the M1 muscarinic receptor cDNAs into similar commercial vectors as described above. Control constructs were transfected into the various cell lines described above, and the response of the cells containing the control constructs to substance K or to carbachol, respectively, was measured. […] Neither control responded to increases in extracellular calcium.

[6] = target: T1, parathyroid cell calcium receptor; assay: block of extracellular Ca2+-induced increases in [Ca2+]i in bovine parathyroid cells; assay type: cell-based

Compound: C1CNCCNCCNCCNCCNCCN1 [Hexacyclen, 1,4,7,10,13,16-hexaaza-cyclooctadecane]
- potency increase relative to pentaethylenehexamine ([1]; ring structure vs straight chain): 25 fold
- mobilization of intracellular Ca2+ in oocytes (calcium receptor): caused the mobilization of intracellular Ca^2+

Compound: CC(NCCC(c1ccccc1)c1ccccc1)c1ccccc1 (racemic) [Fendiline]
- effect on Cl- current / intracellular Ca2+ [2]: evokes the mobilization of intracellular Ca^2+
- effect on Cl- current / intracellular Ca2+ ([2]; listed as fendiline): evokes oscillatory increases in Cl^-; also recorded: elicits oscillatory increases in Cl^-

Compound: NCCCCNCCCN [Spermidine]
- effect on [Ca2+]i in osteoclasts [3]: none of these caused any large increase in [Ca^2+ ]i
- effect on [Ca2+]i [1]: mobilize intracellular Ca^2+

- effect on [Ca2+]i [1]: mobilize intracellular Ca^2+
- relative potency, in words ([1]; parathyroid cells): about twice as potent as NPS 381
- mobilization of intracellular Ca2+ in oocytes (calcium receptor): also effective
Compound: NCCCN(CCCN)CCCNCCCCNCCCN(CCCN)CCCN [NPS 382, N^1,N^1,N^5,N^14,N^14-tetrakis-(3-aminopropyl)spermine]

Compound: protamine
- effect on PTH secretion (bovine parathyroid cells; bovine parathyroid cells): inhibit PTH secretion; also recorded: inhibited PTH secretion to the same extent as extracellular Ca^2+
- effect on isoproterenol-induced increases in cyclic AMP (cyclic AMP): depressed isoproterenol-induced increases in cyclic AMP
- effect on inositol phosphate formation (inositol phosphates): increases the formation of inositol phosphates; also recorded: rapid (within 30 seconds) increase in the formation of IP3
- effect on [Ca2+]i [1]: evoked rapid and transient increases in [Ca^2+ ]i
- effect on intracellular Ca2+ ([1]; neomycin B 30 μM, protamine 1 μg/ml): mobilization of intracellular Ca^2+

Compound: COc1cccc(C(C)NCCCc2ccccc2)c1 (racemic) [NPS 467]
- effect on circulating PTH (PTH): dose-dependent reduction in circulating levels of PTH
- effect on serum albumin or phosphate [4]: no change in serum albumin or phosphate levels
- effect on serum or whole blood Ca2+ (serum ionized calcium): maximal within three hours
- effect on serum or whole blood Ca2+ (serum ionized calcium; listed as NPS-467): dose-dependent reduction in serum or whole blood Ca^2+

Compound: substance K: ligand of substance K receptor (HKTDSFVGLM; ends and bridges not checked; UniProt P20366 98-107, looked up)
- response of calcium receptor-transfected cells [5]: did not respond

Compound: CC(Cc1ccccc1)NCCC(c1ccccc1)c1ccccc1 (stereo not drawn) [Prenylamine]
- effect on [Ca2+]i in osteoclasts [3]: mobilization of [Ca^2+ ]i

- effect on extracellular Ca2+-elicited increase in [Ca2+]i ([6]; 200 μM): inhibited the increase in [Ca^2+ ]i
- effect on extracellular Ca2+-evoked increase in [Ca2+]i ([6]; around 500 μM): abolished
Compound: NCCCCCCCCCCCCNC(=O)Cc1ccc(O)cc1O [NPS 021]
- effect on basal [Ca2+]i ([6]; 0.5 mM CaCl2): caused no change in [Ca^2+ ]i; also recorded: does not by itself cause any change in [Ca^2+ ]i

Compound: CCCCCCCCCCCCCC(=O)O[C@@H]1[C@@H](C)[C@@]2(O)[C@@H](C=C(CO)C[C@]3(O)C(=O)C(C)=C[C@@H]23)[C@@H]2C(C)(C)[C@]12OC(C)=O [PMA, phorbol myristate acetate]
- effect on concentration-response curves for inhibition of PTH secretion (bovine parathyroid cells; 100 nM, 30 minutes): shifts to the right the concentration-response curves
- effect on inositol phosphate formation (inositol phosphates): depresses the formation of IP1
- effect on concentration-response curves for increases in [Ca2+]i ([1]; 100 nM): shift to the right in the concentration-response curve; also recorded: shifts to the right the concentration-response curves

Compound: C[N+](C)(C)CCOC(N)=O [carbachol]
- response of calcium receptor-transfected cells [5]: did not respond
